{"source": "ChEMBL document CHEMBL1154382", "about": "“Preliminary SAR analysis of novel antiproliferative N(6),5'-bis-ureidoadenosine derivatives” (2009)", "format_in_all_cases": "functional", "key": {"[1]": {"system": "CCRF-CEM", "experiment": "Antiproliferative activity against human CCRF-CEM cells"}, "[2]": {"system": "HL-60(TB)", "experiment": "Antiproliferative activity against human HL-60(TB) cells"}, "[3]": {"system": "K562", "experiment": "Antiproliferative activity against human K562 cells"}, "[4]": {"system": "MOLT-4", "experiment": "Antiproliferative activity against human MOLT4 cells"}, "[5]": {"experiment": "Antiproliferative activity against human […] cells"}, "[6]": {"system": "A549", "experiment": "Antiproliferative activity against human A549 cells"}, "[7]": {"system": "EKVX", "experiment": "Antiproliferative activity against human EKVX cells"}, "[8]": {"system": "HOP-62", "experiment": "Antiproliferative activity against human HOP62 cells"}, "[9]": {"system": "HOP-92", "experiment": "Antiproliferative activity against human HOP92 cells"}, "[10]": {"system": "NCI-H226", "experiment": "Antiproliferative activity against human NCI-H226 cells"}, "[11]": {"system": "NCI-H23", "experiment": "Antiproliferative activity against human NCI-H23 cells"}, "[12]": {"system": "NCI-H322M", "experiment": "Antiproliferative activity against human NCI-H322M cells"}, "[13]": {"system": "NCI-H460", "experiment": "Antiproliferative activity against human NCI-H460 cells"}, "[14]": {"system": "NCI-H522", "experiment": "Antiproliferative activity against human NCI-H522 cells"}, "[15]": {"system": "COLO 205", "experiment": "Antiproliferative activity against human COLO205 cells"}, "[16]": {"system": "HCC 2998", "experiment": "Antiproliferative activity against human HCC2998 cells"}, "[17]": {"system": "HCT-116", "experiment": "Antiproliferative activity against human HCT116 cells"}, "[18]": {"system": "HCT-15", "experiment": "Antiproliferative activity against human HCT15 cells"}, "[19]": {"system": "HT-29", "experiment": "Antiproliferative activity against human HT-29 cells"}, "[20]": {"system": "KM12", "experiment": "Antiproliferative activity against human KM12 cells"}, "[21]": {"system": "SW-620", "experiment": "Antiproliferative activity against human SW620 cells"}, "[22]": {"system": "LOX IMVI", "experiment": "Antiproliferative activity against human LOXIMVI cells"}, "[23]": {"system": "Malme-3M", "experiment": "Antiproliferative activity against human MALME-3M cells"}, "[24]": {"system": "M14", "experiment": "Antiproliferative activity against human M14 cells"}, "[25]": {"system": "SK-MEL-2", "experiment": "Antiproliferative activity against human SK-MEL-2 cells"}, "[26]": {"system": "SK-MEL-28", "experiment": "Antiproliferative activity against human SK-MEL-28 cells"}, "[27]": {"system": "SK-MEL-5", "experiment": "Antiproliferative activity against human SK-MEL-5 cells"}, "[28]": {"system": "UACC-257", "experiment": "Antiproliferative activity against human UACC257 cells"}, "[29]": {"system": "UACC-62", "experiment": "Antiproliferative activity against human UACC62 cells"}, "[30]": {"system": "SF-268", "experiment": "Antiproliferative activity against human SF268 cells"}, "[31]": {"system": "SF-295", "experiment": "Antiproliferative activity against human SF295 cells"}, "[32]": {"system": "SF-539", "experiment": "Antiproliferative activity against human SF539 cells"}, "[33]": {"system": "SNB-19", "experiment": "Antiproliferative activity against human SNB19 cells"}, "[34]": {"system": "SNB-75", "experiment": "Antiproliferative activity against human SNB75 cells"}, "[35]": {"system": "U-251", "experiment": "Antiproliferative activity against human U251 cells"}, "[36]": {"system": "IGROV-1", "experiment": "Antiproliferative activity against human IGROV1 cells"}, "[37]": {"system": "OVCAR-3", "experiment": "Antiproliferative activity against human OVCAR-3 cells"}, "[38]": {"system": "OVCAR-4", "experiment": "Antiproliferative activity against human OVCAR4 cells"}, "[39]": {"system": "OVCAR-5", "experiment": "Antiproliferative activity against human OVCAR5 cells"}, "[40]": {"system": "OVCAR-8", "experiment": "Antiproliferative activity against human OVCAR8 cells"}, "[41]": {"system": "SK-OV-3", "experiment": "Antiproliferative activity against human SKOV3 cells"}, "[42]": {"system": "786-0", "experiment": "Antiproliferative activity against human 786-0 cells"}, "[43]": {"system": "A498", "experiment": "Antiproliferative activity against human A498 cells"}, "[44]": {"system": "ACHN", "experiment": "Antiproliferative activity against human ACHN cells"}, "[45]": {"system": "CAKI-1", "experiment": "Antiproliferative activity against human Caki1 cells"}, "[46]": {"system": "RXF 393", "experiment": "Antiproliferative activity against human RXF393 cells"}, "[47]": {"system": "SN12C", "experiment": "Antiproliferative activity against human SN12C cells"}, "[48]": {"system": "TK-10", "experiment": "Antiproliferative activity against human TK10 cells"}, "[49]": {"system": "UO-31", "experiment": "Antiproliferative activity against human UO31 cells"}, "[50]": {"system": "BT-549", "experiment": "Antiproliferative activity against human BT549 cells"}, "[51]": {"experiment": "Antiproliferative activity against human Hs 578T cells"}, "[52]": {"system": "MCF7", "experiment": "Antiproliferative activity against human MCF7 cells"}, "[53]": {"system": "MDA-MB-231", "experiment": "Antiproliferative activity against human MDA-MB-231 cells"}, "[54]": {"system": "MDA-MB-435", "experiment": "Antiproliferative activity against human MDA-MB-435 cells"}, "[55]": {"system": "T47D", "experiment": "Antiproliferative activity against human T47D cells"}, "[56]": {"system": "DU-145", "experiment": "Antiproliferative activity against human DU145 cells"}, "[57]": {"system": "SR", "experiment": "Antiproliferative activity against human SR cells"}}, "data": [{"smiles": "CNC(=O)NC[C@H]1O[C@@H](n2cnc3c(NC(=O)Nc4ccccc4)ncnc32)[C@H](O[Si](C)(C)C(C)(C)C)[C@@H]1CC(=O)N(C)OC", "values": [{"measurement": "GI50", "setting": "[1]", "result": 6.37, "unit": "µM"}, {"measurement": "GI50", "setting": "[2]", "result": 0.00181, "unit": "µM"}, {"measurement": "GI50", "setting": "[3]", "result": 3.12, "unit": "µM"}, {"measurement": "GI50", "setting": "[4]", "result": 2.23, "unit": "µM"}, {"measurement": "GI50", "setting": "[5]", "result": 1.58, "unit": "µM"}, {"measurement": "GI50", "setting": "[6]", "result": 9.35, "unit": "µM"}, {"measurement": "GI50", "setting": "[7]", "result": 26.4, "unit": "µM"}, {"measurement": "GI50", "setting": "[8]", "result": 24.9, "unit": "µM"}, {"measurement": "GI50", "setting": "[9]", "result": 2.71, "unit": "µM"}, {"measurement": "GI50", "setting": "[10]", "result": 41.9, "unit": "µM"}, {"measurement": "GI50", "setting": "[11]", "result": 57.2, "unit": "µM"}, {"measurement": "GI50", "setting": "[12]", "result": "> 100", "unit": "µM"}, {"measurement": "GI50", "setting": "[13]", "result": 7.49, "unit": "µM"}, {"measurement": "GI50", "setting": "[14]", "result": 11.1, "unit": "µM"}, {"measurement": "GI50", "setting": "[15]", "result": 12.3, "unit": "µM"}, {"measurement": "GI50", "setting": "[16]", "result": 30.6, "unit": "µM"}, {"measurement": "GI50", "setting": "[17]", "result": 4.2, "unit": "µM"}, {"measurement": "GI50", "setting": "[18]", "result": 6.47, "unit": "µM"}, {"measurement": "GI50", "setting": "[19]", "result": 5.37, "unit": "µM"}, {"measurement": "GI50", "setting": "[20]", "result": 23.9, "unit": "µM"}, {"measurement": "GI50", "setting": "[21]", "result": "> 100", "unit": "µM"}, {"measurement": "GI50", "setting": "[22]", "result": 7.3, "unit": "µM"}, {"measurement": "GI50", "setting": "[23]", "result": 11.4, "unit": "µM"}, {"measurement": "GI50", "setting": "[24]", "result": 15.2, "unit": "µM"}, {"measurement": "GI50", "setting": "[25]", "result": 14.9, "unit": "µM"}, {"measurement": "GI50", "setting": "[26]", "result": 7.77, "unit": "µM"}, {"measurement": "GI50", "setting": "[27]", "result": 5.81, "unit": "µM"}, {"measurement": "GI50", "setting": "[28]", "result": 22.6, "unit": "µM"}, {"measurement": "GI50", "setting": "[29]", "result": 41.9, "unit": "µM"}, {"measurement": "GI50", "setting": "[30]", "result": 8.29, "unit": "µM"}, {"measurement": "GI50", "setting": "[31]", "result": 9.09, "unit": "µM"}, {"measurement": "GI50", "setting": "[32]", "result": 22.3, "unit": "µM"}, {"measurement": "GI50", "setting": "[33]", "result": "> 100", "unit": "µM"}, {"measurement": "GI50", "setting": "[34]", "result": 12.7, "unit": "µM"}, {"measurement": "GI50", "setting": "[35]", "result": 5.66, "unit": "µM"}, {"measurement": "GI50", "setting": "[36]", "result": 3.72, "unit": "µM"}, {"measurement": "GI50", "setting": "[37]", "result": 7.11, "unit": "µM"}, {"measurement": "GI50", "setting": "[38]", "result": 53, "unit": "µM"}, {"measurement": "GI50", "setting": "[39]", "result": 38.2, "unit": "µM"}, {"measurement": "GI50", "setting": "[40]", "result": 9.02, "unit": "µM"}, {"measurement": "GI50", "setting": "[41]", "result": 52.7, "unit": "µM"}, {"measurement": "GI50", "setting": "[42]", "result": 9.01, "unit": "µM"}, {"measurement": "GI50", "setting": "[43]", "result": 3.87, "unit": "µM"}, {"measurement": "GI50", "setting": "[44]", "result": 14.4, "unit": "µM"}, {"measurement": "GI50", "setting": "[45]", "result": 53.8, "unit": "µM"}, {"measurement": "GI50", "setting": "[46]", "result": 9.74, "unit": "µM"}, {"measurement": "GI50", "setting": "[47]", "result": 85.3, "unit": "µM"}, {"measurement": "GI50", "setting": "[48]", "result": 20.5, "unit": "µM"}, {"measurement": "GI50", "setting": "[49]", "result": 7.79, "unit": "µM"}, {"measurement": "GI50", "setting": "[50]", "result": 29, "unit": "µM"}, {"measurement": "GI50", "setting": "[51]", "result": 5.79, "unit": "µM"}, {"measurement": "GI50", "setting": "[52]", "result": 5.59, "unit": "µM"}, {"measurement": "GI50", "setting": "[53]", "result": 12.3, "unit": "µM"}, {"measurement": "GI50", "setting": "[54]", "result": 10.9, "unit": "µM"}, {"measurement": "GI50", "setting": "[55]", "result": 13.9, "unit": "µM"}, {"measurement": "GI50", "setting": "[56]", "result": 16.6, "unit": "µM"}, {"measurement": "GI50", "setting": "[57]", "result": 1.27, "unit": "µM"}]}]}
